# From patent publication US4053466A, “(E)-2-[p-(β-substituted-vinyl)phenyl]alkanoic acids” (Kohjin Co., Ltd., priority 1974, dated 1977)
# Tests used:
# [1] = Farmaco. Edizione Scientifica, 11, 167 (1956); cited from earlier work
# [2] = tested on: rabbit platelet-rich plasma; test: inhibition of collagen-induced platelet aggregation; assay type: cell-based; settings: 10^-4 M, 0.02N NaOH, 3 minute incubation
# Experimental: The activity was evaluated after a 3 minute incubation of a mixture of the platelet aggregation inhibitor and rabbit platelet-rich plasma. […] Accordingly,the relative potency of inhibition of the test compound to aspirin (RASP) at the same concentration was chosen as a direct measure of inhibition potency.
# [3] = tested on: phenylquinone-induced writhing; test: analgesic activity, Phenylquinone-Writhing Syndrome method; assay type: in vivo, mouse (ddN strain); settings: for number of positive mice: fewer writhings than half of control; for ED50: Mus musculus, po, phenylquinone writhing, positive = fewer writhings than half of control
# Experimental: Analgesic activity was determined according to the Phenylquinone-Writhing Syndrome method. ddN strain mice, each weighing about 18 to 22 g were used. Chemical pain was induced by an intraperitoneal injection of 0.1 ml/10 g body weight of 0.03% phenylquinone in 5% aqueous ethanol into the mice. The number of writhings was measured for 15 minutes from 5 minutes after challenge of phenylquinone. Each dose of the drug was given 30 minutes before challenge of phenylquinone.
# Ed50 -value was calculated from the number of positive animals showing fewer writhings than half of the matched control group.
# [4] = tested on: carrageenin-induced hind paw edema; test: anti-inflammatory activity, carrageenin-induced hind paw edema; assay type: in vivo, rat (male Wistar); settings: for number of positive rats: inhibition of 25% or more vs control at 3 hours; for ED50: Rattus norvegicus, po, carrageenin edema, positive = inhibition of 25% or more at 3 hours
# Experimental: The anti-inflammatory activity of the compounds against carrageenin-inducededema was determined according to procedure described in C. A. Winter et al., Proc. Soc. Exp. Biol. Med., 111, 544 (1962). Male Wistar rats, each weighing 100 to 120 g were used. Hind paw edema was induced by sub-cutaneous injection of 0.1 ml of 1% carrageenin solution into the left foot pad of each rat. Hind paw volume was measured before and after challenge of carrageenin by immersion of the hind paw down to the lateral malleolus into a glass cylinder containing water. Each dose of the test compound was orally administered one hour before challenge of carrageenin.
# ED50 -value was calculated from the number of positive animals showing an inhibitory activity of 25% or more than the matched control group at 3 hours after carrageenin challenge.
smiles,measurement,setting,value
O=C(O)Cc1ccc(C=Cc2ccccc2)cc1 [4-stilbene-acetic acid],anti-cholesterinemic activity,[1],anti-cholesterinemic activity
"O=C(O)Cc1ccc(/C=C/c2cccs2)cc1 [Example 4, (E)-p-(β-2-Thienylvinyl)phenylacetic Acid]",RASP (relative potency of inhibition of the test compound to aspirin),[2],1.0
"CC(C)Cc1ccc(C(C)C(=O)O)cc1 (stereo not shown) [Ibuprofen, 2-(p-isobutylphenyl)propionic acid, reference compound]",RASP (relative potency of inhibition of the test compound to aspirin),[2],0.6
same,Inhibition in (%) of writhing,[3]; 25 mg/kg p.o.,25.5%
same,"Number of Writhings/15 min., Mean ± S.E.",[3]; 25 mg/kg p.o.,27.4 ± 3.3
same,number of positive mice,[3]; 25 mg/kg p.o.,2
same,Inhibition in (%) of writhing,[3]; 50 mg/kg p.o.,45.7%
same,"Number of Writhings/15 min., Mean ± S.E.",[3]; 50 mg/kg p.o.,20.0 ± 1.5
same,number of positive mice,[3]; 50 mg/kg p.o.,4
same,Inhibition in (%) of writhing,[3]; 100 mg/kg p.o.,64.4%
same,"Number of Writhings/15 min., Mean ± S.E.",[3]; 100 mg/kg p.o.,13.1 ± 1.9
same,number of positive mice,[3]; 100 mg/kg p.o.,8
same,Inhibition in (%) of writhing,[3]; 200 mg/kg p.o.,76.4%
same,"Number of Writhings/15 min., Mean ± S.E.",[3]; 200 mg/kg p.o.,8.7 ± 1.6
same,number of positive mice,[3]; 200 mg/kg p.o.,10
same,Inhibition in (%) of writhing,[3]; 400 mg/kg p.o.,94.8%
same,"Number of Writhings/15 min., Mean ± S.E.",[3]; 400 mg/kg p.o.,1.9 ± 0.8
same,number of positive mice,[3]; 400 mg/kg p.o.,10
same,ED50,[3],50 mg/kg
same,"Hind Paw Swelling, Mean ± S.E.","[4]; 10 mg/kg p.o., 2 hours",57.4 ± 3.9%
same,Percent Inhibition of hind paw swelling,"[4]; 10 mg/kg p.o., 2 hours",13.6%
same,"Hind Paw Swelling, Mean ± S.E.","[4]; 10 mg/kg p.o., 3 hours",60.8 ± 4.7%
same,Percent Inhibition of hind paw swelling,"[4]; 10 mg/kg p.o., 3 hours",15.5%
same,number of positive rats,[4]; 10 mg/kg p.o.,1
same,"Hind Paw Swelling, Mean ± S.E.","[4]; 20 mg/kg p.o., 2 hours",52.6 ± 3.4%
same,Percent Inhibition of hind paw swelling,"[4]; 20 mg/kg p.o., 2 hours",20.9%
same,"Hind Paw Swelling, Mean ± S.E.","[4]; 20 mg/kg p.o., 3 hours",56.2 ± 2.7%
same,Percent Inhibition of hind paw swelling,"[4]; 20 mg/kg p.o., 3 hours",21.9%
same,number of positive rats,[4]; 20 mg/kg p.o.,4
same,"Hind Paw Swelling, Mean ± S.E.","[4]; 40 mg/kg p.o., 2 hours",47.5 ± 4.0%
same,Percent Inhibition of hind paw swelling,"[4]; 40 mg/kg p.o., 2 hours",28.6%
same,"Hind Paw Swelling, Mean ± S.E.","[4]; 40 mg/kg p.o., 3 hours",51.2 ± 4.0%
same,Percent Inhibition of hind paw swelling,"[4]; 40 mg/kg p.o., 3 hours",28.9%
same,number of positive rats,[4]; 40 mg/kg p.o.,7
same,"Hind Paw Swelling, Mean ± S.E.","[4]; 80 mg/kg p.o., 2 hours",41.8 ± 2.3%
same,Percent Inhibition of hind paw swelling,"[4]; 80 mg/kg p.o., 2 hours",37.2%
same,"Hind Paw Swelling, Mean ± S.E.","[4]; 80 mg/kg p.o., 3 hours",43.9 ± 2.4%
same,Percent Inhibition of hind paw swelling,"[4]; 80 mg/kg p.o., 3 hours",38.9%
same,number of positive rats,[4]; 80 mg/kg p.o.,9
same,ED50,[4],24.3 mg/kg
"CC(C(=O)O)c1ccc(/C=C/c2cccs2)cc1 (stereo not drawn) [XG-28, (E)-2-[p-(β-2-Thienylvinyl)phenyl]propionic Acid]",RASP (relative potency of inhibition of the test compound to aspirin),[2],1.6
same,Inhibition in (%) of writhing,[3]; 0.5 mg/kg p.o.,13.5%
same,"Number of Writhings/15 min., Mean ± S.E.",[3]; 0.5 mg/kg p.o.,16.8 ± 2.1
same,number of positive mice,[3]; 0.5 mg/kg p.o.,1
same,Inhibition in (%) of writhing,[3]; 5 mg/kg p.o.,25.8%
same,"Number of Writhings/15 min., Mean ± S.E.",[3]; 5 mg/kg p.o.,14.4 ± 6.0
same,number of positive mice,[3]; 5 mg/kg p.o.,2
same,Inhibition in (%) of writhing,[3]; 10 mg/kg p.o.,29.4%
same,"Number of Writhings/15 min., Mean ± S.E.",[3]; 10 mg/kg p.o.,13.7 ± 2.4
same,number of positive mice,[3]; 10 mg/kg p.o.,2
same,Inhibition in (%) of writhing,[3]; 25 mg/kg p.o.,71.1%
same,"Number of Writhings/15 min., Mean ± S.E.",[3]; 25 mg/kg p.o.,5.6 ± 1.8
same,number of positive mice,[3]; 25 mg/kg p.o.,7
same,Inhibition in (%) of writhing,[3]; 50 mg/kg p.o.,52.1%
same,"Number of Writhings/15 min., Mean ± S.E.",[3]; 50 mg/kg p.o.,9.3 ± 1.6
same,number of positive mice,[3]; 50 mg/kg p.o.,4
same,Inhibition in (%) of writhing,[3]; 100 mg/kg p.o.,63.9%
same,"Number of Writhings/15 min., Mean ± S.E.",[3]; 100 mg/kg p.o.,7.0 ± 2.0
same,number of positive mice,[3]; 100 mg/kg p.o.,9
same,Inhibition in (%) of writhing,[3]; 200 mg/kg p.o.,60.3%
same,"Number of Writhings/15 min., Mean ± S.E.",[3]; 200 mg/kg p.o.,7.7 ± 1.2
same,number of positive mice,[3]; 200 mg/kg p.o.,5
same,ED50,[3],14.1 mg/kg
same,"Hind Paw Swelling, Mean ± S.E.","[4]; 1 mg/kg p.o., 2 hours",73.7 ± 3.7%
same,Percent Inhibition of hind paw swelling,"[4]; 1 mg/kg p.o., 2 hours",2.4%
same,"Hind Paw Swelling, Mean ± S.E.","[4]; 1 mg/kg p.o., 3 hours",73.9 ± 2.6%
same,Percent Inhibition of hind paw swelling,"[4]; 1 mg/kg p.o., 3 hours",-1.0%
same,number of positive rats,[4]; 1 mg/kg p.o.,0
same,"Hind Paw Swelling, Mean ± S.E.","[4]; 2.5 mg/kg p.o., 2 hours",67.0 ± 2.6%
same,Percent Inhibition of hind paw swelling,"[4]; 2.5 mg/kg p.o., 2 hours",11.3%
same,"Hind Paw Swelling, Mean ± S.E.","[4]; 2.5 mg/kg p.o., 3 hours",70.12 ± 2.1%
same,Percent Inhibition of hind paw swelling,"[4]; 2.5 mg/kg p.o., 3 hours",4.0%
same,number of positive rats,[4]; 2.5 mg/kg p.o.,0
same,"Hind Paw Swelling, Mean ± S.E.","[4]; 5 mg/kg p.o., 2 hours",62.9 ± 3.2%
same,Percent Inhibition of hind paw swelling,"[4]; 5 mg/kg p.o., 2 hours",16.8%
same,"Hind Paw Swelling, Mean ± S.E.","[4]; 5 mg/kg p.o., 3 hours",68.2 ± 2.7%
same,Percent Inhibition of hind paw swelling,"[4]; 5 mg/kg p.o., 3 hours",6.7%
same,number of positive rats,[4]; 5 mg/kg p.o.,1
same,"Hind Paw Swelling, Mean ± S.E.","[4]; 10 mg/kg p.o., 2 hours",60.5 ± 2.3%
same,Percent Inhibition of hind paw swelling,"[4]; 10 mg/kg p.o., 2 hours",19.8%
same,"Hind Paw Swelling, Mean ± S.E.","[4]; 10 mg/kg p.o., 3 hours",65.7 ± 2.0%
same,Percent Inhibition of hind paw swelling,"[4]; 10 mg/kg p.o., 3 hours",10.1%
same,number of positive rats,[4]; 10 mg/kg p.o.,0
same,"Hind Paw Swelling, Mean ± S.E.","[4]; 20 mg/kg p.o., 2 hours",50.7 ± 3.7%
same,Percent Inhibition of hind paw swelling,"[4]; 20 mg/kg p.o., 2 hours",33.6%
same,"Hind Paw Swelling, Mean ± S.E.","[4]; 20 mg/kg p.o., 3 hours",56.0 ± 4.1%
same,Percent Inhibition of hind paw swelling,"[4]; 20 mg/kg p.o., 3 hours",25.2%
same,number of positive rats,[4]; 20 mg/kg p.o.,6
same,"Hind Paw Swelling, Mean ± S.E.","[4]; 40 mg/kg p.o., 2 hours",46.8 ± 2.6%
same,Percent Inhibition of hind paw swelling,"[4]; 40 mg/kg p.o., 2 hours",38.7%
same,"Hind Paw Swelling, Mean ± S.E.","[4]; 40 mg/kg p.o., 3 hours",48.6 ± 3.1%
same,Percent Inhibition of hind paw swelling,"[4]; 40 mg/kg p.o., 3 hours",35.1%
same,number of positive rats,[4]; 40 mg/kg p.o.,8
same,"Hind Paw Swelling, Mean ± S.E.","[4]; 80 mg/kg p.o., 2 hours",49.8 ± 2.6%
same,Percent Inhibition of hind paw swelling,"[4]; 80 mg/kg p.o., 2 hours",31.3%
same,"Hind Paw Swelling, Mean ± S.E.","[4]; 80 mg/kg p.o., 3 hours",49.3± 2.8%
same,Percent Inhibition of hind paw swelling,"[4]; 80 mg/kg p.o., 3 hours",30.9%
same,number of positive rats,[4]; 80 mg/kg p.o.,7
same,ED50,[4],23.3 mg/kg
"CC(C)Cc1ccc(CC(=O)O)cc1 [p-Isobutylphenylacetic acid, reference compound]",RASP (relative potency of inhibition of the test compound to aspirin),[2],0.5
